Measurements: publication PMC13183915, “A platinum butterfly effect: small changes turn an anticancer drug into a non-toxic metalloantibiotic with in vivo efficacy” (npj Antimicrobials and Resistance, 2026)
“And” between values parts separate entries of the source, which are not always exact repeats. Identical values can stand only once.

Tests used:
[1] = tested on: RecA-GFP (B. subtilis UG10); assay: Localization of RecA-GFP (DNA damage reporter); format: cell-based, Bacillus subtilis; settings: Pt1 3.125 µM, Pt8 25 µM, CisPt 100 µM; strongest after 10 min
Protocol: To confirm whether the compounds induce DNA damage in bacterial cells, the localization of RecA was assessed. RecA is part of the bacterial SOS response to DNA damage. It is a DNA-associated protein that recognizes single-stranded DNA, which occurs as a consequence of strand breaks. If strand breaks are present, RecA accumulates at the damaged sites, appearing as foci or elongated structures. Since the RecA response is strongest shortly after stress induction, we additionally examined a 10 min timepoint in this assay.
(§1) B. subtilis strains were grown in LB containing appropriate inducer concentrations as specified in Table S10. After reaching an OD600 of 0.3, cultures were split and treated with antibiotics. Samples were withdrawn after 30 and 60 min of treatment, spotted on glass slides covered with 1% agarose films, and immediately imaged.

[2] = tested on: GFP-MinD expression (B. subtilis TB35); assay: Translation inhibition assay (inducible GFP-MinD expression); format: cell-based, Bacillus subtilis; settings: 3.125 µM Pt1, 25 µM Pt8; 60 min
Protocol: B. subtilis strain TB35 (Pxyl-minD-gfp) was grown in LB without inducer. After reaching an OD600 of 0.3, antibiotics and inducer (0.1% xylose) were added consecutively. Samples were withdrawn for microscopy after 60 min of treatment, spotted on glass slides covered with 1% agarose films, and imaged without delay.
Figure S11: MinD translation induction assay. TB35 (Pxyl-minD-gfp) was grown without xylose, thus not expressing GFP -MinD. […]
chloramphenicol (CHL). Images were taken after 60 min of induction/treatment. Scale bar 2 […]
(§2) (1 picture or pasted object on this page, not shown here)

[3] = tested on: RpsB-GFP (B. subtilis 1049); assay: Localization of RpsB-GFP (translation reporter); format: cell-based, Bacillus subtilis; settings: 3.12 µM Pt1, 25 µM Pt8; 30 and 60 min
Protocol: as §1
Figure S10: Localization of RpsB-GFP (B. subtilis 1049). Cultures were treated with 3.12 µM
as §2

[4] = tested on: MRSA NRS 100; assay: Broth microdilution MIC, MRSA NRS 100; format: cell-based, S. aureus; settings: MRSA NRS 100
Protocol: (§3) The data is given in supporting information (Table S5). Before starting the experiment, a single colony was picked from MHA plate, inoculated in MHBII and incubated overnight at 37 °C with shaking for 18–24 h to get the starter culture. Antibiotic susceptibility testing was conducted according to the CLSI (Clinical & Laboratory Standards Institute) guidelines using the broth microdilution assay. 10 mg/mL stock solutions of test compounds were prepared in DMSO. Bacterial cultures were inoculated in MHBII and optical density (OD) was measured at 600 nm, followed by dilution to achieve ~10^6 CFU/mL. The compounds were tested from 64 to 0.5 mg/L in two-fold serial diluted fashion with 2.5 μL of each concentration added to well of a 96-well round bottom microtiter plate. Later, 97.5 μL of bacterial suspension was added to each well containing either test compound or appropriate controls. […] The MIC is defined as the lowest concentration of the compound at which there is absence of visible growth. For each test compound, MIC determinations were carried out independently three times using duplicate samples.

[5] = tested on: B. subtilis bSS82; assay: Bacterial cytological profiling (BCP); format: cell-based, Bacillus subtilis
From the text: To get an overview of the cellular effects of the compounds, we employed bacterial cytological profiling (BCP). To this end, we used a strain intracellularly expressing green-fluorescent protein (GFP) from the strong, constitutive PrpsD promoter (B. subtilis bSS82[37]), stained with the membrane dye Nile red and the DNA dye DAPI. Combined with phase contrast microscopy, this setup allows simultaneous assessment of cell morphology, cell lysis, pore formation, membrane morphology, and nucleoid morphology in one assay.
BCP was performed according to Wenzel et al.[71]. In short, B. subtilis strain […] (PrpsD-gfp) was grown to an OD600 of 0.3 prior to splitting of parent cultures and addition of antibiotics. Samples were taken for microscopy after 30, 60, and 120 min of antibiotic treatment. Five minutes prior to sampling, cultures were stained with 0.5 µg/mL Nile red and 1 µg/mL DAPI for 5 min. Samples of 0.5 µL were then spotted onto 1% agarose slides[45] and images were taken immediately.
Cell length and DAPI intensity were analyzed using MicrobeJ[73]. To this end, the fit shape, rod-shaped setting was used with a minimum area of 0.5 µm, while all other settings remained at default. B. subtilis chains were seperated based on the membrane stain. Membrane stress was counted using the ObjectJ plugin[74], using the membrane setting to seperate individual cells in chains. Membrane damage was expressed as ratio of cells with visible Nile red foci and total detected cells. DNA compaction was analyzed by determining the area of the DNA and the whole cell are using advanced weka segmentation. Cells were segmented according to the GFP signal. […] Cells that were out of focus or lysed were excluded from the analysis. Statistical analysis was peformed using GraphPad Prism 10 as specified in the individual figure legends.

[6] = tested on: Vero cells; assay: Cytotoxicity against Vero cells (MTT assay); format: cell-based, African Green Monkey; settings: 72 h
Protocol: Cell toxicity was performed against Vero cells using the MTT assay. ~10^3 cells/well were seeded in 96 well plate and incubated at 37 °C with 5% CO2 atmosphere. […] After the incubation was over, MTT was added in each well, incubated at 37 °C for further 4 h, residual medium was discarded, 0.1 mL of DMSO was added to solubilize the formazan crystals and OD540 was taken for the calculation of IC50. Doxorubicin was used as positive control and each experiment was repeated in triplicate.

[7] = tested on: A. baumanii BAA 1605; assay: Broth microdilution MIC, A. baumannii BAA 1605; format: cell-based, Acinetobacter baumannii
Protocol: as §3

[8] = tested on: S. aureus ATCC 29213; assay: Resistance induction by serial passage; format: cell-based; settings: after 36 days at ½ MIC
Protocol: The MICs of the passaged cultures were determined every 3 days and compared to that of wild type S. aureus ATCC 29213. MIC changes were recorded for 36 passages.

[9] = tested on: B. subtilis 168CA; assay: Optimal stressor concentration, acute shock growth curves; format: cell-based, Bacillus subtilis; settings: after compound addition
Protocol: To establish a starting concentration for the OSC assay, MICs against parent strain 168CA were determined under conditions equivalent to those used for mode of action assays. […] MICs were used as basis for OSC determination. To this end, growth curves were recorded using optical density (OD) measurements. Culture volumes of 20 mL were grown until reaching an OD600 of 0.3. Subsequently, the parent culture was split into 2 ml aliquots, followed by addition of different MIC multiples of Pt compounds[71]. An untreated culture served as control. Growth was followed until cultures reached the stationary phase. A concentration achieving 50–70% growth inhibition in exponential phase was selected as optimal stressor concentration. […] As controls, 0.23 µM nisin, 0.53 µM µM gramicidin, 100 µM CCCP, 0.67 µM vancomycin, 1.2 µM rifampicin, and 323.12 µM chloramphenicol were included as controls for specific assays as appropriate.

[10] = tested on: MRSA NRS 193; assay: Broth microdilution MIC, MRSA NRS 193; format: cell-based, S. aureus; settings: MRSA NRS 193
Protocol: as §3

[11] = tested on: λ-phage DNA; assay: Single-molecule imaging of YOYO-1-labeled λ-DNA, DNA length analysis; format: biochemical
[12] = Stability by 1H and 195Pt NMR; format: physicochemical
Protocol: Measurements were repeated after the 24 h and 48 h of incubations at 37 °C.
Then, 10% D2O was added and 1H NMR was recorded immediately and after 24 h of incubation at 37 °C.

[13] = 60 min, Pt1 3.125 µM, Pt8 25 µM, CisPt 100 µM

Compound: C1=C\CC/C=C\CC/1.[Cl][Pt][Cl] [Pt1]
- RecA accumulation on nucleoids [1]: clear RecA accumulations
- GFP-MinD expression after xylose induction [2]: No differences in GFP-MinD expression were observed
- localization of RpsB [3]: Neither protein showed a distinct phenotype
- MIC [4]: 0.67 to 1.34 µM
- Nile red foci (membrane stress) ([5]; 3.125 µM, not statistically supported): Nile red foci, indicating membrane stress, were observed
- DAPI fluorescence intensity [5, 13]: significant reduction of the DAPI signal
- nucleoid compaction (cell area vs DAPI-stained nucleoid area) [5, 13]: clear nucleoid compaction
- IC50 [6]: > 134 µM
- MIC [7]: > 64 µg/mL
- MIC after passaging [8]: 0.25 µg/mL
- delay until the onset of growth inhibition [9]: ~ 30 min
- MIC [10]: 0.25 µg/mL and 0.67 µM
- DNA molecule length shift ([11]; 3.125 µM Pt1, 25 µM Pt8, 100 µM CisPt, 10 min): shorter fragments
- DNA fragmentation at swapped (equimolar comparison) concentrations ([11]; 25 µM Pt1, 3.125 µM Pt8): stronger DNA fragmentation
- time compound remains intact in aqueous environment (1H-NMR) ([12]; DMSO-d6 with 10% D2O, 37 °C): at least 24 h
- time compound remains intact (NMR) ([12]; approximately 7 mM in DMSO-d6, 37 °C, 1H and 195Pt NMR): at least 48 h
